Assay results taken from patent publication US4420482A, “1,4-Bis(acetylsalicyloyloxy)piperizine derivatives” (priority 1980, dated 1983).

Tests used:
[1] = Analgesic activity, pressure-induced pain on paw inflamed by brewers' yeast (test of Randall and Selitto); type: in vivo, Sprague Dawley rat; settings: for Pain sensitivity threshold (g) of inflamed paw: mean of 1 and 2 hr, P < 0.01 vs controls; for analgesic activity: equimolecular doses, S.1528 vs acetylsalicylic acid
Experimental: The analgesic activity of S.1528 was assessed on the sensitivity threshold of pain induced by a pressure exerted on a rat's paw inflamed by application of brewers' yeast (90 Sprague Dawley male rats with a mean bodyweight of 150 g).

[2] = Antipyretic activity, hyperpyrexia induced by intramuscular brewers' yeast; type: in vivo, Sprague Dawley rat; settings: for antipyretic activity: equimolecular doses, S.1528 vs acetylsalicylic acid; for mean temperature decrease: half dosage
[3] = Therapeutic index (ratio between toxic dose and active dose); type: in vivo; settings: 2600:158 for S.1528; 1000:100 for acetylsalicylic acid
[4] = Gastric ulcerogenic effect in the rat; type: in vivo, Sprague Dawley rat; settings: for Incidence of gastric lesions (animals with lesions versus total treated): fasted 36 hours, killed 5 hours later
[5] = Protective activity on lethal shock induced by inhaled histamine; type: in vivo, guinea-pig; settings: for Protected animals: 20 guinea-pigs; for antihistaminic activity: inhaled histamine shock, guinea-pig
From the text: Table 4 points out the protective activity exerted by S.1528 versus the lethal shock induced in the guinea-pig by an inhaled histamine.

[6] = Paw carrageenin edema in the rat (anti-inflammatory activity); type: in vivo, Sprague Dawley rat; settings: for anti-inflammatory activity: equimolecular doses, S.1528 vs acetylsalicylic acid
Experimental: The anti-inflammatory activity of S.1528 was assessed in the paw carrageenin edema (220 Sprague Dawley male rats with a mean bodyweight of 150 g). […] It should be noted that, in the overall context of the present patent application the term "equimolecular doses" of S.1528 indicates all those doses that contain acetylsalicylic residues in a quantity equivalent to that of acetylsalicylic acid used as reference drug.

[7] = Comparative oral acute toxicity in the mouse; type: in vivo
From the text: The new derivative of acetylsalicylic acid, ie S.1528, has been showing a quite mild toxicity associated with marked anti-inflammatory, antipyretic and analgesic activities as well as with an evident anti-histaminic activity. Moreover, unlike acetylsalicylic acid, the new compound appear to be entirely devoid of any gastric injuring effect.

In the case of `CC(=O)Oc1ccccc1C(=O)OCCN1CCN(CCOC(=O)c2ccccc2OC(C)=O)CC1` [S.1528, 1,4-BIS-[2-(ACETYLSALICYLOYLOXY)ETHYL] PIPERAZINE], the “Threshold percent increase vs. controls” value ([1]; 158 mg/kg/os) is reported as 41.3%, the “Pain sensitivity threshold (g) of inflamed paw” value (“Pain sensitivity threshold (g)” below) ([1]; 158 mg/kg/os) is reported as 127.2 ± 6.3 g and the “Threshold percent increase vs. controls” value ([1]; 317 mg/kg/os) is reported as 69.1%. For the same compound, the “Pain sensitivity threshold (g)” value ([1]; 317 mg/kg/os) was 152.2 ± 8.4 g, the “analgesic activity” value [1] was “quantitatively similar activity” and the “antipyretic activity” value [2] was “quite the same antipyretic activity”. The mean temperature decrease ([2]; 118.5 mg/kg/os) was 0.4 degrees centigrades, the “therapeutic index (ratio between the toxic dose and the active dose)” value [3] was 16.45 and the “Mean number of gastric ulcerations (mm)” value ([4]; 158 mg/kg, os) was 0 mm. The “Incidence of gastric lesions (animals with lesions versus total treated)” value ([4]; 158 mg/kg, os) was 0/20, the “Mean number of gastric ulcerations (mm)” value ([4]; 317 mg/kg, i.p.) was 0 mm and the “Incidence of gastric lesions (animals with lesions versus total treated)” value ([4]; 317 mg/kg, i.p.) was 0/20. The “Mean number of gastric ulcerations (mm)” value ([4]; 317 mg/kg, os) was 0 mm, the “Incidence of gastric lesions (animals with lesions versus total treated)” value ([4]; 317 mg/kg, os) was 0/20 and the “gastric injuring effect” value ([4]; equimolecular doses, rat) was “no gastric injuring effect”. The “Percent Protection” value ([5]; 158 mg/kg/os) was 60%, the “Time of resistance” value ([5]; 158 mg/kg/os) was 523 min and the Protected animals ([5]; 158 mg/kg/os) was 12 animals. The “Percent Protection” value ([5]; 317 mg/kg/os) was 100%, the “Time of resistance” value ([5]; 317 mg/kg/os) was > 720 min and the Protected animals ([5]; 317 mg/kg/os) was 20 animals. The ED50 ([5]; Cavia porcellus, read-out: dose that protects 50 percent of the guinea-pigs from the onset of a shock due to histamine) was 158 mg/kg, the “antihistaminic activity” value [5] was “evident antihistaminic activity” and the “Comparative edema decrease in the various groups of untreated control animals” value (“Comparative edema decrease” for short) ([6]; 79 mg/kg/os, P ns) was -23. For the same compound, the “Comparative edema decrease” value ([6]; 158 mg/kg/os, P <0.01) was -52, the “Comparative edema decrease” value ([6]; 317 mg/kg/os, P <0.01) was -83 and the “anti-inflammatory activity” value [6] was “quantitatively superimposable anti-inflammatory activity”. For the same compound, the “Mortality observed (7 days)” value ([7]; 750 mg/kg/os) was 0/10, the “Mortality observed (7 days)” value ([7]; 1000 mg/kg/os) was 0/10 and the “Mortality observed (7 days)” value ([7]; 1500 mg/kg/os) was 0/20. For the same compound, the “Mortality observed (7 days)” value ([7]; 1750 mg/kg/os) was 0/20, the “Mortality observed (7 days)” value ([7]; 2000 mg/kg/os) was 4/20 and the “Mortality observed (7 days)” value ([7]; 2250 mg/kg/os) was 5/20. For the same compound, the “Mortality observed (7 days)” value ([7]; 2500 mg/kg/os) was 8/20, the “Mortality observed (7 days)” value ([7]; 2750 mg/kg/os) was 12/20 and the “Mortality observed (7 days)” value ([7]; 3000 mg/kg/os) was 16/20. The LD50 at 168 h ([7]; in vivo, oral, read-out: oral LD 50) was ~2600 mg/kg.

In the case of `CC(=O)Oc1ccccc1C(=O)O` [Acetylsalicylic acid, acetylsalicylic acid, reference compound], the “Threshold percent increase vs. controls” value ([1]; 110 mg/kg/os) is reported as 36.2%, the “Pain sensitivity threshold (g)” value ([1]; 110 mg/kg/os) is reported as 122.6 ± 7.1 g and the “Threshold percent increase vs. controls” value ([1]; 221 mg/kg/os) is reported as 71.2%. The “Pain sensitivity threshold (g)” value ([1]; 221 mg/kg/os) was 154.1 ± 5.7 g, the “analgesic activity” value [1] was “quantitatively similar activity” and the “antipyretic activity” value [2] was “quite the same antipyretic activity”. The mean temperature decrease ([2]; 75 mg/kg/os) was 0.4 degrees centigrades, the “therapeutic index (ratio between the toxic dose and the active dose)” value [3] was 10 and the “Time of resistance” value ([5]; 110 mg/kg/os) was 66 ± 6.3 min. The Protected animals ([5]; 110 mg/kg/os) was 0 animals, the “Time of resistance” value ([5]; 221 mg/kg/os) was 54 min and the Protected animals ([5]; 221 mg/kg/os) was 0 animals. The “antihistaminic activity” value [5] was “entirely devoid of any antihistaminic activity”, the “Comparative edema decrease” value ([6]; 55 mg/kg/os, P ns) was -28 and the “Comparative edema decrease” value ([6]; 110 mg/kg/os, P <0.01) was -44. The “Comparative edema decrease” value ([6]; 221 mg/kg/os, P <0.01) was -79, the “anti-inflammatory activity” value [6] was “quantitatively superimposable anti-inflammatory activity” and the “Mortality observed (7 days)” value ([7]; 250 mg/kg/os) was 0. For the same compound, the “Mortality observed (7 days)” value ([7]; 500 mg/kg/os) was 0, the “Mortality observed (7 days)” value ([7]; 750 mg/kg/os) was 4/20 and the “Mortality observed (7 days)” value ([7]; 1000 mg/kg/os) was 10/20. The “Mortality observed (7 days)” value ([7]; 1250 mg/kg/os) was 14/20, the “Mortality observed (7 days)” value ([7]; 1500 mg/kg/os) was 20/20 and the “Mortality observed (7 days)” value ([7]; 1750 mg/kg/os) was 10/10. For the same compound, the “oral LD 50” value ([7]; oral, 10080 min) was 1000 mg/kg.
